Six compounds from US20260364184A1, “COMPOUND BASED ON OXOISOINDOLINYL-SUBSTITUTED TETRAHYDROPYRIMIDINE-DIONE AND USE THEREOF” (GLUETACS THERAPEUTICS (SHANGHAI) CO., LTD., priority 2023, published 2026) can be followed below.

Holding throughout (type): cell-based
Experiment [1] concerns Human T lymphocytic leukemia cell line (Jurkat). The experiment in a line: Inhibition of Jurkat cell proliferation (CellTiter luminescent viability). The note with it: Homo sapiens, Table IF3, AR inhibitor-based, 96 hours; for inhibition at 0.01 µM: 10 nM, read-out: Inhibition Rate at 10 nM (%); for inhibition at 0.5 µM: 500 nM, read-out: Inhibition Rate at 500 nM (%). The procedure:
The tumor cells used herein were cultured in a cell culture medium listed in table 3 at 37 °C in an incubator with 5% CO2. Prior to experimentation, all cell lines used were correctly identified by STR profiling, and tested negative for mycoplasma contamination using a mycoplasma detection kit through routine screenings.
The IC50 values of the compounds of the present disclosure (including the compounds in Table 1, Table 2, and Examples 1-468) were determined using the CellTiter-Meiluncell Luminescent Cell Viability Assay Kit from Dalian Meilun Biotech Co., Ltd. The detailed procedure is as follows: Tumor cells were seeded in 96-well cell culture plates at the densities specified in Table 4. On the following day, the test compounds of the present disclosure were subjected to serial dilution. The dilution can be performed according to one of the following two methods: • (1) The first dilution method: The test compounds of the present disclosure (including the compounds in Table 1, Table 2, and Examples 1-468) were subjected to 5-fold serial dilutions starting from a highest concentration of 2000 μM, resulting in a total of 9 concentrations from high to low (2000, 400, 80, 16, 3.2, 0.64, 0.128, 0.0256, 0.00512 μM). Subsequently, 0.5 μL of the test compound dilution was transferred into the 96-well plate containing the cells, with each well containing 100 μL of cell culture medium. […] Into the 96-well plate, the diluted test compounds and corresponding detection reagents were added, resulting in final test compound concentrations of 500 nM and 10 nM, respectively. The experimental procedure is described below using the diluted 2 μM test compound as an example.
0.5 μL of the aforementioned diluted compound of the present disclosure (including the compounds in Table 1, Table 2, and Examples 1-468) was added to the seeded cells in 100 μL of medium, yielding a final test compound concentration of 10 nM. After the cells were treated with the compounds of the present disclosure for a specified period, the cell viability assay reagent was added to the culture medium according to the kit's instructions to determine cell viability. […] All controls were treated using the same procedure as the compounds of the present disclosure. The growth inhibition curves for the compounds of the present disclosure were plotted using Prism GraphPad software, and the IC50 values were calculated therefrom.

Experiment [2] concerns Human diffuse large B-cell lymphoma cell line (TMD8). The experiment in a line: Inhibition of TMD8 cell proliferation (CellTiter luminescent viability). The settings on record: Table IF1, AR inhibitor-based; for inhibition at 0.5 µM / inhibition at 0.01 µM: Homo sapiens, TMD8, 96 h; for inhibition at 0.5 µM: TMD8, 500 nM, read-out: Inhibition Rate at 500 nM (%); for inhibition at 0.01 µM: read-out: Inhibition Rate at 10 nM (%).

The target in the next experiment is T1, AR (Homo sapiens, UniProt P10275).
T1 construct: expression of target proteins in cells; endogenous in cells
T1 sequence (P10275 1-920): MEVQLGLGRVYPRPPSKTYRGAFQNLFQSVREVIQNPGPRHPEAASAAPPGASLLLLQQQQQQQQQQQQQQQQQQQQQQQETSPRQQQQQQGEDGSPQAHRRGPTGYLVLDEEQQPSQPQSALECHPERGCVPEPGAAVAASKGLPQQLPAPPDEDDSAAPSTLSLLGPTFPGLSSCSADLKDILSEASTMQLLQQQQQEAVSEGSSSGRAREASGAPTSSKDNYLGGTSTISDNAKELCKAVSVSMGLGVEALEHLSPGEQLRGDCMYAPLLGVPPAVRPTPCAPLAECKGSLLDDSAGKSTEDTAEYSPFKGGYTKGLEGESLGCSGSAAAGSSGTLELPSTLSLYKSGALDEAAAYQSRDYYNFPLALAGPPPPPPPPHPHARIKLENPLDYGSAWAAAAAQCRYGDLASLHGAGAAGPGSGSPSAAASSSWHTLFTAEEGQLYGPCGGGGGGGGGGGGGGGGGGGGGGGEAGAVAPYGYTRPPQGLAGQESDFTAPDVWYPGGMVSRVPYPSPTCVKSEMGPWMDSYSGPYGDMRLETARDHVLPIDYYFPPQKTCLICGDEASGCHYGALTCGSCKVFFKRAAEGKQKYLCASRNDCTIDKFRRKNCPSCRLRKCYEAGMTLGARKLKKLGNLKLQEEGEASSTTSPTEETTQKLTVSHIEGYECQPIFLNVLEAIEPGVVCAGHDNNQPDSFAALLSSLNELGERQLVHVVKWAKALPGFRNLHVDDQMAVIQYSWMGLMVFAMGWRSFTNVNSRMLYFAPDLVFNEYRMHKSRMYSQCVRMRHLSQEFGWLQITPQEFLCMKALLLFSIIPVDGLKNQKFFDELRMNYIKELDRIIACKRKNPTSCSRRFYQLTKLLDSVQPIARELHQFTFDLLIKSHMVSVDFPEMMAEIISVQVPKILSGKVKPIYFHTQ
The experiment in a line: Western blot degradation of AR. The note with it: LnCap Cell; 24 hours. The procedure:
Conventional Western blot assay was performed to evaluate the effects of the compounds of the present disclosure on the expression of target proteins in cells.
(1) Cell Seeding and Protein Harvesting: The selected cells were processed according to the cell seeding procedure and protein harvesting procedure in Table II-2.
(2) To the collected supernatant, 5×SDS sample loading buffer was added, followed by denaturation at 95 °C for 5 minutes. The denatured samples were then separated by SDS-PAGE electrophoresis on a polyacrylamide gel. Proteins were transferred to a nitrocellulose membrane (0.45 μm NC membrane), blocked with blocking buffer at room temperature for 1 hour, and subjected to antibody incubation and development procedures according to the antibody manufacturer's instructions (Cell Signaling Technology).
Half-Maximal Degradation Concentration value (the drug concentration required for degrading proteins by 50%, abbreviated as DC50) reads method: comparing the grayscale values of Western blot bands from drug-treated samples with those from blank DMSO-treated controls, and identifying the drug concentration range at which the grayscale value is half that of the DMSO-treated control bands.
DC50 values can be calculated using ImageJ software to measure grayscale values of Western blot bands from drug-treated samples. The concentration-response curve is fitted to estimate the drug concentration corresponding to half the grayscale value.
Target protein remaining (%) refers to the percentage of target protein remaining in cells after treatment with protein degrader compounds.
Calculation method for target protein remaining (%): Use ImageJ software to measure grayscale values of Western blot bands from drug (protein degrader)-treated samples. The grayscale value of drug-treated bands is divided by that of internal control protein bands, and the resulting quotient is normalized to obtain the relative percentage of remaining target protein after protein degrader treatment.
Target protein degradation rate (%)=1−target protein remaining (%).
Background: Immunoblotting shows a protein as a band on a membrane.

Experiment [3] concerns Human acute lymphocytic leukemia T lymphocytes cell line (CCRF-CEM). The experiment in a line: Inhibition of CCRF-CEM cell proliferation (CellTiter luminescent viability). The settings on record: Table IF2, AR inhibitor-based; for inhibition at 0.5 µM / inhibition at 0.01 µM: Homo sapiens, 96 h; for inhibition at 0.5 µM: 500 nM, read-out: Inhibition Rate at 500 nM (%); for inhibition at 0.01 µM: read-out: Inhibition Rate at 10 nM (%).

Structures are written as SMILES.

`CC1(C)[C@H](NC(=O)c2ccc(N3CCC(CN4CCN(c5ccc6c(c5)C(=O)N(N5CCC(=O)NC5=O)C6=O)CC4)CC3)nc2)C(C)(C)[C@H]1Oc1ccc(C#N)c(Cl)c1` [GT-05301, N-((1r,3r)-3-(3-chloro-4-cyanophenoxy)-2,2,4,4-tetramethylcyclobutyl)-6-(4-((4-(2-(2,4-dioxotetrahydropyrimidin-1(2H)-yl)-1,3-dioxoisoindolin-5-yl)piperazin-1-yl)methyl)piperidin-1-yl)nicotinamide]: the inhibition (commonly the percentage by which the read-out fell short of the control) at 0.01 µM in experiment [1] is 10 to 15%. The inhibition at 0.5 µM fell in the range of 20 to 30% in experiment [1], 40 to 60% in experiment [2] and 30 to 40% in experiment [3]. Moreover, the “Inhibition Rate at 10 nM (%)” value in experiment [2] (TMD8, 10 nM, 96 hours, 0.01 µM) is “IFa6 (25% ≤ IFa6 < 30%)”; in experiment [3] (10 nM, 96 hours, 0.01 µM), “IFb5 (15% ≤ IFb5 < 20%)”. On AR, the “Degradation of substrate protein AR (substrate protein remaining %)” value (from here on “Degradation … (substrate protein remaining %)”) was “A (0%≤substrate protein remaining %≤80%)”.
Consider `CC1(C)[C@H](NC(=O)c2ccc(N3CCC(CN4CCN(c5cc(F)c6c(c5)C(=O)N(N5CCC(=O)NC5=O)C6=O)CC4)CC3)nc2)C(C)(C)[C@H]1Oc1ccc(C#N)c(Cl)c1` [GT-05346, N-((1r,3r)-3-(3-chloro-4-cyanophenoxy)-2,2,4,4-tetramethylcyclobutyl)-6-(4-((4-(2-(2,4-dioxotetrahydropyrimidin-1(2H)-yl)-7-fluoro-1,3-dioxoisoindolin-5-yl)piperazin-1-yl)methyl)piperidin-1-yl)nicotinamide], for which the inhibition at 0.01 µM lay in the range of 0 to 5% in experiment [1]; 15 to 20% in experiment [2] (TMD8, 10 nM); 15 to 20% in experiment [3] (10 nM). Moreover, the inhibition at 0.5 µM in experiment [1] lay in the range of 20 to 30%; in experiment [2], 35 to 40%; in experiment [3], 20 to 30%. At AR, the “Degradation … (substrate protein remaining %)” value is listed as “A (0%≤substrate protein remaining %≤80%)”.
As to `CC1(C)[C@H](NC(=O)c2ccc(N3CCC(CN4C5CC4CN(c4ccc6c(c4)C(=O)N(N4CCC(=O)NC4=O)C6=O)C5)CC3)nc2)C(C)(C)[C@H]1Oc1ccc(C#N)c(Cl)c1` [GT-05823, N-((1r,3r)-3-(3-chloro-4-cyanophenoxy)-2,2,4,4-tetramethylcyclobutyl)-6-(4-((3-(2-(2,4-dioxotetrahydropyrimidin-1(2H)-yl)-1,3-dioxoisoindolin-5-yl)-3,6-diazabicyclo[3.1.1]heptan-6-yl)methyl)piperidin-1-yl)nicotinamide], the inhibition at 0.01 µM in experiment [1] was 5 to 10%; in experiment [2] (TMD8, 10 nM), 10 to 15%; in experiment [3] (10 nM), 5 to 10%. Further, the inhibition at 0.5 µM lay in the range of 20 to 30% in experiment [1], 35 to 40% in experiment [2] and 20 to 30% in experiment [3]. Also, the “Degradation … (substrate protein remaining %)” value at AR is recorded as “A (0%≤substrate protein remaining %≤80%)”.
For `N#Cc1ccc(O[C@H]2CC[C@H](NC(=O)c3ccc(N4CCC(CN5CC6CCC(C5)N6c5ccc6c(c5)C(=O)N(N5CCC(=O)NC5=O)C6=O)CC4)nn3)CC2)cc1Cl` [GT-05229, N-((1r,4r)-4-(3-chloro-4-cyanophenoxy)cyclohexyl)-6-(4-((8-(2-(2,4-dioxotetrahydropyrimidin-1(2H)-yl)-1,3-dioxoisoindolin-5-yl)-3,8-diazabicyclo[3.2.1]octan-3-yl)methyl)piperidin-1-yl)pyridazine-3-carboxamide], the inhibition at 0.01 µM was in the range of 20 to 30% in experiment [1]; 40 to 60% in experiment [2] (TMD8, 10 nM); 30 to 40% in experiment [3] (10 nM). Moreover, the inhibition at 0.5 µM was in the range of 40 to 60% in experiment [1], 60 to 80% in experiment [2] and 60 to 80% in experiment [3]. Moreover, the “Degradation … (substrate protein remaining %)” value at AR is “A (0%≤substrate protein remaining %≤80%)”.
For `CC1(C)[C@H](NC(=O)c2ccc(N3CCC(CN4CC5CCC(C4)N5c4ccc5c(c4)C(=O)N(N4CCC(=O)NC4=O)C5=O)CC3)nc2)C(C)(C)[C@H]1Oc1ccc(C#N)c(Cl)c1` [GT-05305, N-((1r,3r)-3-(3-chloro-4-cyanophenoxy)-2,2,4,4-tetramethylcyclobutyl)-6-(4-((8-(2-(2,4-dioxotetrahydropyrimidin-1(2H)-yl)-1,3-dioxoisoindolin-5-yl)-3,8-diazabicyclo[3.2.1]octan-3-yl)methyl)piperidin-1-yl)nicotinamide], the inhibition at 0.01 µM in experiment [1] lay in the range of 10 to 15%; in experiment [2] (TMD8, 10 nM), 25 to 30%; in experiment [3] (10 nM), 20 to 30%. The inhibition at 0.5 µM in experiment [1], in experiment [2] and in experiment [3] was 40 to 60% in each case. Further, the “Degradation … (substrate protein remaining %)” value on AR is on record as “A (0%≤substrate protein remaining %≤80%)”.
In the case of `N#Cc1ccc(O[C@H]2CC[C@H](NC(=O)c3ccc(N4CCC(CN5C6CC5CN(c5ccc7c(c5)C(=O)N(N5CCC(=O)NC5=O)C7=O)C6)CC4)nn3)CC2)cc1Cl` [GT-05821, N-((1r,4r)-4-(3-chloro-4-cyanophenoxy)cyclohexyl)-6-(4-((3-(2-(2,4-dioxotetrahydropyrimidin-1(2H)-yl)-1,3-dioxoisoindolin-5-yl)-3,6-diazabicyclo[3.1.1]heptan-6-yl)methyl)piperidin-1-yl)pyridazine-3-carboxamide], the inhibition at 0.01 µM was 10 to 15% in experiment [1]; 15 to 20% in experiment [2] (TMD8, 10 nM); 15 to 20% in experiment [3] (10 nM). In addition, the inhibition at 0.5 µM in experiment [1] lay within 20 to 30%; in experiment [2], 40 to 60%; in experiment [3], 30 to 40%. Further, at AR, the “Degradation … (substrate protein remaining %)” value is listed as “A (0%≤substrate protein remaining %≤80%)”.
